Results published in US8604202B2, “Thienopyridone derivatives as AMP-activated protein kinase (AMPK) activators” (Merck Patent GmbH, priority 2008, dated 2013).

What follows are molecules tested against T1, AMPK protein (recombinant α1β1γ2) (Homo sapiens, UniProt Q13131+Q9Y478) (assay: AMPK enzymatic activity (Delfia, AMARA peptide)). Details: compound 30 μM vs AMP 30 μM; 125 μM ATP; 30 min room temperature; ratio 90% or higher = direct activator.
T1 construct: made in house; host or cells: E. coli
T1 sequence (Q13131 whole entry): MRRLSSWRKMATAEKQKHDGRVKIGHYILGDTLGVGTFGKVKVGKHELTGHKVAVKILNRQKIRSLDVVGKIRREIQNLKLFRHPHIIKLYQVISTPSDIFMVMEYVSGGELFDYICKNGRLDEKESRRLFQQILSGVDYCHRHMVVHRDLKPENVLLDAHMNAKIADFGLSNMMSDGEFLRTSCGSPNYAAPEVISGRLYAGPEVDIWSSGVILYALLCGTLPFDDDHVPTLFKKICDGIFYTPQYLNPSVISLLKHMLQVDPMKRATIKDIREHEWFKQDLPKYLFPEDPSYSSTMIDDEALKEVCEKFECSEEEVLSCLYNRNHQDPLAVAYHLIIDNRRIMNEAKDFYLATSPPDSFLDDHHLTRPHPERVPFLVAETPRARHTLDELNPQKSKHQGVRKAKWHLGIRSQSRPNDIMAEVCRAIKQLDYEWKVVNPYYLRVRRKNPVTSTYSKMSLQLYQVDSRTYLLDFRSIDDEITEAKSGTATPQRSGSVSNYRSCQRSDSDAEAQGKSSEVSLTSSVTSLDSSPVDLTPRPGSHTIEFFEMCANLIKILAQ
T1 sequence (Q9Y478 whole entry): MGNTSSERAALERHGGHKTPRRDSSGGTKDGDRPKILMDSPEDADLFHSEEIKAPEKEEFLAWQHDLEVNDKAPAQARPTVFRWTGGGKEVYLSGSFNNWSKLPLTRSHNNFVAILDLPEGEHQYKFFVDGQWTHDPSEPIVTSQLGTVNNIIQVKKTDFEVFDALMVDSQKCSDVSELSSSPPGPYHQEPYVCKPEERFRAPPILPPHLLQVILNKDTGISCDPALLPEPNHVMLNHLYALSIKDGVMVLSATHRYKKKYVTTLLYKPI
T1 sequence (Q9UGJ0 whole entry partner): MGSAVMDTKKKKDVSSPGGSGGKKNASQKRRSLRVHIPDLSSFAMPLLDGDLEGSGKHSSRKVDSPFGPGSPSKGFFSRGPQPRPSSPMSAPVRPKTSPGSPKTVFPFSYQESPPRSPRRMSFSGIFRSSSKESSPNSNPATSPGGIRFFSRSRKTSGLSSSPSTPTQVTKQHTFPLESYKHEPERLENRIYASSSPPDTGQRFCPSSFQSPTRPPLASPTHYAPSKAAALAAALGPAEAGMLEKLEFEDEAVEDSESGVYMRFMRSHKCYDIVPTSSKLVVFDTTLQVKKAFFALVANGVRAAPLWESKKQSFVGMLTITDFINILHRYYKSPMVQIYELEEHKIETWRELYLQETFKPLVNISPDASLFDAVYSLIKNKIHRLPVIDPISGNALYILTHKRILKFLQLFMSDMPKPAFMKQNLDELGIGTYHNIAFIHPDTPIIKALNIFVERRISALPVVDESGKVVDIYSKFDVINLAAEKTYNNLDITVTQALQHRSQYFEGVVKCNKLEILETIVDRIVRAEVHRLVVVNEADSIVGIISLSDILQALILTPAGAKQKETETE
Format: biochemical
Description: The following biological test allows the determination of the efficacy of such compounds of formula (I) onto AMPK protein (recombinant α1β1γ2).
Human recombinant AMPK enzyme was expressed in E. Coli and was reactivated in vitro by LKB1 prior to enzyme activity determination.
AMPK enzyme activities were assayed by using A Delfia technology. AMPK enzyme activities were carried out in microtiter plates (50 mM Hepes buffer, pH 7.4 with 125 μM ATP respectively) in the presence of a synthetic peptide substrate (AMARAASAAALARRR, the “AMARA” peptide) and activators in serial dilutions. Reactions were initiated by the addition of AMPK (50-100 ng). Following mixing, the plates were incubated for 30 min at room temperature. Enzyme activity was assayed by using an anti-phosphoserine antibody to measure the quantity of phosphate incorporated into the AMARAA.
Ratio between the % of control (basal activity) of compound of formula (I) at 30 μM and the % of control (basal activity) of AMP (natural substrate) at 30 μM. Compounds of formula (I) in the table II are considered as direct activator of AMPK if the ratio is 90% or higher.
For O=c1[nH]c2scc(-c3ccc(-c4cccc(F)c4)cc3)c2c(O)c1-c1ccccc1 [Compound 10, 3-(3′-fluorobiphenyl-4-yl)-4-hydroxy-5-phenyl-6,7-dihydro-thieno[2,3-b]pyridin-6-one], the “activity: Ratio between the % of control (basal activity) of compound of formula (I) at 30 μM and the % of control (basal activity) of AMP at 30 μM” value (“activity: Ratio between the % of control” below) was 153%.
In the case of O=c1[nH]c2scc(-c3ccc(-c4ccccc4O)cc3)c2c(O)c1-c1ccncc1 [Compound 28, 4-hydroxy-3-(2′-hydroxybiphenyl-4-yl)-5-pyridin-4-yl-6,7-dihydro-thieno[2,3-b]pyridin-6-one], the “activity: Ratio between the % of control” value is reported as 246%.
In the case of N#Cc1ccc(-c2ccc(-c3csc4[nH]c(=O)c(-c5ccccc5)c(O)c34)cc2)cc1 [Compound 19, 3-(4′-cyanobiphenyl-4-yl)-4-hydroxy-5-phenyl-6,7-dihydro-thieno[2,3-b]pyridin-6-one], the “activity: Ratio between the % of control” value is reported as 217%.
O=c1[nH]c2scc(-c3ccc(-c4cccc(F)c4)cc3)c2c(O)c1-c1cccnc1 [Compound 33, 3-(3′-fluorobiphenyl-4-yl)-4-hydroxy-5-pyridin-3-yl-6,7-dihydro-thieno[2,3-b]pyridin-6-one] was tested, and the “activity: Ratio between the % of control” value was 147%.
For O=c1[nH]c2scc(-c3ccc(-c4ccc(F)cc4)cc3)c2c(O)c1-c1ccccc1 [Compound 13, 3-(4′-fluorobiphenyl-4-yl)-4-hydroxy-5-phenyl-6,7-dihydro-thieno[2,3-b]pyridin-6-one], the “activity: Ratio between the % of control” value was 206%.
O=c1[nH]c2sc(Cl)c(-c3ccc(-c4ccccc4O)cc3)c2c(O)c1-c1ccccc1 [Compound 5, 2-chloro-4-hydroxy-3-(2′-hydroxybiphenyl-4-yl)-5-phenyl-6,7-dihydro-thieno[2,3-b]pyridin-6-one] was tested, and the “activity: Ratio between the % of control” value was 138%.
For Cc1ccc(-c2ccc(-c3csc4[nH]c(=O)c(-c5ccncc5)c(O)c34)cc2)cc1 [Compound 24, 4-hydroxy-3-(4′-methylbiphenyl-4-yl)-5-pyridin-4-yl-6,7-dihydro-thieno[2,3-b]pyridin-6-one], the “activity: Ratio between the % of control” value was 191%.
With O=c1[nH]c2scc(-c3ccc(-c4ccc(O)cc4)cc3)c2c(O)c1-c1ccccc1 [Compound 12, 4-hydroxy-3-(4′-hydroxybiphenyl-4-yl)-5-phenyl-6,7-dihydro-thieno[2,3-b]pyridin-6-one] the “activity: Ratio between the % of control” value was 139%.
O=c1[nH]c2scc(-c3ccc(-c4ccc(F)cc4)cc3)c2c(O)c1-c1cccnc1 [Compound 34, 3-(4′-fluorobiphenyl-4-yl)-4-hydroxy-5-pyridin-3-yl-6,7-dihydro-thieno[2,3-b]pyridin-6-one] was tested, and the “activity: Ratio between the % of control” value was 165%.
COc1cc(-c2csc3[nH]c(=O)c(-c4ccccc4)c(O)c23)ccc1-c1cccnc1 [Compound 56, 4-hydroxy-3-[3-methoxy-4-pyridin-3-ylphenyl]-5-phenyl-6,7-dihydro-thieno[2,3-b]pyridin-6-one] was tested, and the “activity: Ratio between the % of control” value was 143%.
For COc1cc(-c2csc3[nH]c(=O)c(-c4ccccc4)c(O)c23)ccc1-c1ccc(C)cc1 [Compound 46, 4-hydroxy-3-(4′-methyl-2-methoxybiphenyl-4-yl)-5-phenyl-6,7-dihydro-thieno[2,3-b]pyridin-6-one], the “activity: Ratio between the % of control” value was 124%.
In the case of O=c1[nH]c2scc(-c3ccc(-c4ccncc4)cc3)c2c(O)c1-c1ccncc1 [Compound 30, 4-hydroxy-5-pyridin-4-yl-3-(4-pyridin-4-ylphenyl)-6,7-dihydro-thieno[2,3-b]pyridin-6-one], the “activity: Ratio between the % of control” value is reported as 212%.
COC(=O)c1ccc(-c2ccc(-c3csc4[nH]c(=O)c(-c5ccncc5)c(O)c34)cc2)cc1 [Compound 25, Methyl 4′-(4-hydroxy-6-oxo-5-pyridin-4-yl-6,7-dihydro-thieno[2,3-b]pyridin-3-yl)biphenyl-4-carboxylate] was tested, and the “activity: Ratio between the % of control” value was 154%.
For COc1cc(F)ccc1-c1ccc(-c2csc3[nH]c(=O)c(-c4ccccc4)c(O)c23)cc1 [Compound 42, 3-(4′-fluoro-2′-methoxybiphenyl-4-yl)-4-hydroxy-5-phenyl-6,7-dihydro-thieno[2,3-b]pyridin-6-one], the “activity: Ratio between the % of control” value was 107%.
In the case of O=c1[nH]c2scc(-c3ccc(-c4cccc(CO)c4)cc3)c2c(O)c1-c1cccnc1 [Compound 39, 4-hydroxy-3-(3′-hydroxymethylbiphenyl-4-yl)-5-pyridin-3-yl-6,7-dihydro-thieno[2,3-b]pyridin-6-one], the “activity: Ratio between the % of control” value is reported as 147%.
In the case of O=c1[nH]c2scc(-c3ccc(-c4ccoc4)cc3)c2c(O)c1-c1cccnc1 [Compound 38, 4-hydroxy-3-[4-(3-furyl)phenyl]-5-pyridin-3-yl-6,7-dihydro-thieno[2,3-b]pyridin-6-one], the “activity: Ratio between the % of control” value is reported as 145%.
For O=C(O)c1ccc(-c2ccc(-c3csc4[nH]c(=O)c(-c5ccccc5)c(O)c34)cc2O)cc1 [Compound 53, 2′-hydroxy-4′-(4-hydroxy-6-oxo-5-phenyl-6,7-dihydro-thieno[2,3-b]pyridin-3-yl)biphenyl-4-carboxylic acid], the “activity: Ratio between the % of control” value was 376%.
For O=c1[nH]c2scc(-c3ccc(-c4ccncc4)cc3O)c2c(O)c1-c1ccccc1 [Compound 57, 4-hydroxy-3-[2-hydroxy-4-pyridin-4ylphenyl]-5-phenyl-6,7-dihydro-thieno[2,3-b]pyridin-6-one], the “activity: Ratio between the % of control” value was 243%.
With O=c1[nH]c2scc(-c3ccc(-c4cccnc4)cc3)c2c(O)c1-c1cccnc1 [Compound 40, 4-hydroxy-5-pyridin-3-yl-3-(4-pyridin-3-ylphenyl)-6,7-dihydro-thieno[2,3-b]pyridin-6-one] the “activity: Ratio between the % of control” value was 162%.
In the case of COc1cc(-c2csc3[nH]c(=O)c(-c4ccccc4)c(O)c23)ccc1-c1ccc(O)cc1 [Compound 48, 4-hydroxy-3-(4′-hydroxy-2-methoxybiphenyl-4-yl)-5-phenyl-6,7-dihydro-thieno[2,3-b]pyridin-6-one], the “activity: Ratio between the % of control” value is reported as 264%.
With N#Cc1cccc(-c2ccc(-c3csc4[nH]c(=O)c(-c5ccccc5)c(O)c34)cc2)c1 [Compound 17, 3-(3′-cyanobiphenyl-4-yl)-4-hydroxy-5-phenyl-6,7-dihydro-thieno[2,3-b]pyridin-6-one] the “activity: Ratio between the % of control” value was 116%.
In the case of O=c1[nH]c2scc(-c3ccc(-c4ccoc4)cc3)c2c(O)c1-c1ccncc1 [Compound 27, 3-[4-(3-furyl)phenyl]-4-hydroxy-5-pyridin-4-yl-6,7-dihydro-thieno[2,3-b]pyridin-6-one], the “activity: Ratio between the % of control” value is reported as 199%.
In the case of O=c1[nH]c2scc(-c3ccc(-c4ccc(O)cc4)c(O)c3)c2c(O)c1-c1ccccc1 [Compound 51, 4-hydroxy-3-(2,4′-hydroxybiphenyl-4-yl)-5-phenyl-6,7-dihydro-thieno[2,3-b]pyridin-6-one], the “activity: Ratio between the % of control” value is reported as 384%.
With O=c1[nH]c2scc(-c3ccc(-c4ccccc4)cc3)c2c(O)c1-c1ccncc1 [Compound 26, 3-biphenyl-4-yl-4-hydroxy-5-pyridin-4-yl-6,7-dihydro-thieno[2,3-b]pyridin-6-one] the “activity: Ratio between the % of control” value was 258%.
In the case of O=c1[nH]c2scc(-c3ccc(-c4cccc(CO)c4)cc3)c2c(O)c1-c1ccccc1 [Compound 58, 4-hydroxy-3-(3′-hydroxymethylbiphenyl-4-yl)-5-phenyl-6,7-dihydro-thieno[2,3-b]pyridin-6-one], the “activity: Ratio between the % of control” value is reported as 111%.
O=c1[nH]c2scc(-c3ccc(-c4ccc(O)cc4O)cc3)c2c(O)c1-c1ccccc1 [Compound 43, 4-hydroxy-3-(2′,4′-dihydroxybiphenyl-4-yl)-5-phenyl-6,7-dihydro-thieno[2,3-b]pyridin-6-one] was tested, and the “activity: Ratio between the % of control” value was 139%.
In the case of O=c1[nH]c2scc(-c3ccc(-c4ccc(F)cc4)cc3)c2c(O)c1-c1ccncc1 [Compound 23, 3-(4′-fluorobiphenyl-4-yl)-4-hydroxy-5-pyridin-4-yl-6,7-dihydro-thieno[2,3-b]pyridin-6-one], the “activity: Ratio between the % of control” value is reported as 163%.
For O=c1[nH]c2scc(-c3ccc(-c4ccc(CO)cc4)cc3)c2c(O)c1-c1ccccc1 [Compound 59, 4-hydroxy-3-(4′-hydroxymethylbiphenyl-4-yl)-5-phenyl-6,7-dihydro-thieno[2,3-b]pyridin-6-one], the “activity: Ratio between the % of control” value was 128%.
